The results in this text go back to paper PMC2934701 (The Journal of Biological Chemistry, 2010).

Common to all, as to assay: Fluo-4 calcium assay, HEK293T + Galpha16gust44
Holding throughout (assay type): cell-based

Assay [1] concerns the target T1, hTAS2R16 (ssr3-hTAS2R16) (Homo sapiens, UniProt Q9NYV7, Q177E).
T1 sequence (Q9NYV7 1-291 Q177E): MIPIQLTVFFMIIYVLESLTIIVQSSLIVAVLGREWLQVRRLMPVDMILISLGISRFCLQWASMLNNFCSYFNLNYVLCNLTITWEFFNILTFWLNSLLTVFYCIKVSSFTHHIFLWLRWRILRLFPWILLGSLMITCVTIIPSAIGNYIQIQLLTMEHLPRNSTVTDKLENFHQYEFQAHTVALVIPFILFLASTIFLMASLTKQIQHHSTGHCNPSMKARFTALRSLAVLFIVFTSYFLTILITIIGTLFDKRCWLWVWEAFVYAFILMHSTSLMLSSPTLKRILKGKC

In assay [2] the target is T2, hTAS2R16 (ssr3-hTAS2R16) (Homo sapiens, UniProt Q9NYV7).
T2 sequence (Q9NYV7 1-291): T1 sequence (Q9NYV7 1-291 Q177E) with E177Q

Assay [3] addresses T3, hTAS2R16 (ssr3-hTAS2R16) (Homo sapiens, UniProt Q9NYV7, H181T).
T3 sequence (Q9NYV7 1-291 H181T): T1 sequence (Q9NYV7 1-291 Q177E) with E177Q, H181T

For assay [4], the target named is T4, hTAS2R16 (ssr3-hTAS2R16) (Homo sapiens, UniProt Q9NYV7, F240W).
T4 sequence (Q9NYV7 1-291 F240W): T1 sequence (Q9NYV7 1-291 Q177E) with E177Q, F240W

Assay [5] addresses T5, hTAS2R16 (ssr3-hTAS2R16) (Homo sapiens, UniProt Q9NYV7, F93A).
T5 sequence (Q9NYV7 1-291 F93A): T1 sequence (Q9NYV7 1-291 Q177E) with F93A, E177Q

In assay [6] the target is T6, hTAS2R16 (ssr3-hTAS2R16) (Homo sapiens, UniProt Q9NYV7, F240L).
T6 sequence (Q9NYV7 1-291 F240L): T1 sequence (Q9NYV7 1-291 Q177E) with E177Q, F240L

Assay [7] deals with T7, hTAS2R16 (ssr3-hTAS2R16) (Homo sapiens, UniProt Q9NYV7, Q177N).
T7 sequence (Q9NYV7 1-291 Q177N): T1 sequence (Q9NYV7 1-291 Q177E) with E177N

Assay [8] concerns the target T8, hTAS2R16 (ssr3-hTAS2R16) (Homo sapiens, UniProt Q9NYV7, Q177A).
T8 sequence (Q9NYV7 1-291 Q177A): T1 sequence (Q9NYV7 1-291 Q177E) with E177A

Where a chain is given by its changes, count along the chain named. A value given as a limit tells only on which side of the number the result lay.

In the case of `OCc1ccccc1O[C@@H]1O[C@H](CO)[C@@H](O)[C@H](O)[C@H]1O` [salicin], the EC50 (commonly the concentration at which the effect is half-maximal) at hTAS2R16 (ssr3-hTAS2R16) [1] is 220 µM; on hTAS2R16 (ssr3-hTAS2R16) [2] it was 220 µM; at hTAS2R16 (ssr3-hTAS2R16) [3] it was 1840 µM; on hTAS2R16 (ssr3-hTAS2R16) [4] it was 2050 µM; on hTAS2R16 (ssr3-hTAS2R16) [5], 11500 µM; at hTAS2R16 (ssr3-hTAS2R16) [6], above 30000 µM. Besides, the EC50 at hTAS2R16 (ssr3-hTAS2R16) [7] worked out at 390 µM; on hTAS2R16 (ssr3-hTAS2R16) [8] it was 550 µM.
